The values below come from patent US12391683B2, “Therapeutic compounds and methods” (Actio Biosciences, Inc., priority 2022, dated 2025).

Where only a bound is given, the exact number is not on record here.

Data set [1] has as its system Hepatocytes. As to the kind of experiment: Hepatocytes predicted clearance, dog.
Data set [2] deals with T1, TRPC5 channels (Homo sapiens, UniProt Q9UL62).
T1 construct: expressed in transfected cells; host or cells: HEK293
T1 sequence (Q9UL62 1-973): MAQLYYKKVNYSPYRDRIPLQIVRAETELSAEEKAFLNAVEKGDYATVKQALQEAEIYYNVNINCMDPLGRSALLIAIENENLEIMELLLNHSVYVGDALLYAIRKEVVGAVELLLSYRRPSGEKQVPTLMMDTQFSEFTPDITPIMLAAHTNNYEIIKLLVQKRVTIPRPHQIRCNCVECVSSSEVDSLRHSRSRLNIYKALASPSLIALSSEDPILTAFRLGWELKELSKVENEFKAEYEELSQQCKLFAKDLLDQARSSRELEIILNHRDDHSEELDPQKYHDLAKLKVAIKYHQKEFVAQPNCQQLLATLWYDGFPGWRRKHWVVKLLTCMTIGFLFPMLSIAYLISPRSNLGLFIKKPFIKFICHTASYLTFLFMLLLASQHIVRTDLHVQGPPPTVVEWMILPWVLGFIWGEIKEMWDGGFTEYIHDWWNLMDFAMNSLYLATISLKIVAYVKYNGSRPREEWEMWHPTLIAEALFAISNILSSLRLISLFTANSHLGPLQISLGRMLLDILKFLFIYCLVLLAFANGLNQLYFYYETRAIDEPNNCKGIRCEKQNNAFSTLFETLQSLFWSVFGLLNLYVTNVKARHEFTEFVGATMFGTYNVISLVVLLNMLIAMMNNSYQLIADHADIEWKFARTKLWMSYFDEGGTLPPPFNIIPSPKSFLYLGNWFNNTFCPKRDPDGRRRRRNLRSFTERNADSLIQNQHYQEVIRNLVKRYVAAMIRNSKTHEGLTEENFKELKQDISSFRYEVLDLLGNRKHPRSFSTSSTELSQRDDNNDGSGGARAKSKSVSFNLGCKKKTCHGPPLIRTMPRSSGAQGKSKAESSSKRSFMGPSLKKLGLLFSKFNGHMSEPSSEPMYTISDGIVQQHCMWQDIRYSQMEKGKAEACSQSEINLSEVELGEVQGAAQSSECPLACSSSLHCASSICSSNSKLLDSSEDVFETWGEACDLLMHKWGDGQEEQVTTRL
The experiment in a line: TRP Family FLIPR Assay, TRPC5. Format: cell-based. The note with it: HEK293 cells. As for the experimental part:
The compound of Example 5 was tested for selectivity against a panel of Human TRP family ion channels in a TRP Family FLIPR Assay as described below. • 1. TRPC3 channels (human TRPC3 variant 1 gene, expressed in HEK293 cells). • 2. TRPC4 channels (human TRPC4 gene, expressed in HEK293 cells). • 3. TRPC5 channels (human TRPC5 gene, expressed in HEK293 cells). • 4. TRPC6 channels (human TRPC6 gene, expressed in HEK293 cells). • 5. TRPM2 channels (human TRPM2 gene, transiently expressed in HEK293 cells). • 6. TRPM3 channels (human TRPM3 gene, transiently expressed in HEK293 cells). • 7. TRPM4 channels (human TRPM4 gene, expressed in CHO cells). • 8. […]
Data acquisition was performed via the FLIPR Control software supplied with the FLIPR System (MDS-AT) and data was analyzed using Microsoft Excel (Microsoft Corp., Redmond, WA) or GraphPad Prism. […]
[formula] where Base is the response at low concentrations of test article, Max is the maximum response at high concentrations, xhalf the EC50, or IC50, the concentration of test article producing either half-maximal activation or inhibition, and rate is the Hill coefficient. […] No assumptions about the fit parameters was made; the fit parameters were determined by the algorithm.
The effect of each test article was evaluated at eight (8) concentrations: 0.003, 0.01, 0.03, 0.1, 0.3, 1, 3 and 10 μM, n≤4 wells/concentration). […]

As to `CC(C)(O)c1cnc(N2C[C@@]3(CC[C@@H](F)[C@](C)(Cn4cnc5ccc(C#N)cc54)C3)OC2=O)cn1` (single isomer, unassigned) [Example 5], the “Hepatocytes predicted clearance in dog” value in data set [1] is 11 mL/min/kg. In data set [2] (agonist mode, vs EMAX of (−)-Englerin A 30 μM, read-out: EC50 hTRPC5), the EC50 (as a rule, the concentration at which the effect is half-maximal) was above 10 µM. Also, the half-inhibitory concentration (IC50) (as a rule, the midpoint of a concentration-inhibition curve) in data set [2] (antagonist mode, activated with 0.5 μM (−)-Englerin A, 0.003-10 μM, read-out: IC50 hTRPC5) was above 10 µM.
